# Literature values in patent publication US20140206025A1, “Use Of Detection Of Aspartate Transaminase And Lactate Dehydrogenase In Early Evaluation Of Clinical Efficacy Of Antitumor Intervention Measure” (Beijing Sunbio Biotech Co., Ltd., priority 2011, published 2014).
# Test system: tumor cells
# Settings: Cytokin & Growth Factor Reviews 14 (2003) 337-348
substance,measurement,value
"TRAIL/APO-2L: wild type Tumor necrosis factor-related apoptosis-inducing ligand, acts on Death Receptor 4 and/or 5",induction of apoptosis of tumor cells,selectively induces the apoptosis of multiple tumor cells
same,toxic effect on normal cells,no obvious toxic effect on normal cells
